Measured values reported in patent US4834982A, “Potassium-neutral salureticum with anti-hypertensive effect” (priority 1987, dated 1989).
“And” between values parts separate entries of the source, which are not always exact repeats. Equal values may be shown once. Read-outs that look alike come from different tables or passages of the source. Blank lines part the entries; values can stand above or below the molecule they belong to.

Key:
[1] = 50 mg/day or 100 mg/day triamterene with 40 mg/day furosemide; cited from earlier work
[2] = 40 mg furosemide, normal volunteers; cited from earlier work
[3] = solubility of furosemide and triamterene; format: physicochemical
[4] = solubilization and binding thermodynamics of furosemide in triamterene micelles; format: physicochemical
[5] = contact angle measurements; format: physicochemical
[6] = critical micelle concentration / equilibrium surface tension measurements; format: physicochemical; details: substances separately, 37° C.
From the text: Since the interfacial molecular areas can be determined from the slopes of equilibrium surface tensions measurements from FIG. A,B, just below the break points, they are easy to compare.

[7] = solute permeability of ions on artificial membranes; details: 0.30 mM
[8] = in vivo; cited from earlier work
[9] = cited from earlier work

solubility ([3]; 37° C., molar equivalent): 0.0001184 mol/L | solubility ([3]; 37° C., molar equivalent in parentheses): 0,11 mMol | solubility ([3]; molar, read-out: solubility): 0.000118 mol/L | solubility ([3]; pH 5.5, read-out: solubility): 30 µg/mL | solubility ([3]; pH 9-11.0): 5 µg/mL | K(T) of triamterene micelle, times smaller than for a furosemide micelle [4]: roughly 15 times | limiting value of n (aggregation number of triamterene micelles) ([4]; pH 2.5): 15 | limiting value of n (aggregation number of triamterene micelles) ([4]; pH 7.9): 25 | contact angle [5]: 100 deg. | critical micelle concentration (CMC) [6]: 15 µM | triamterene molecules required to solubilize furosemide (controlled release form of furosemide at basic pH): 320-350 molecules
SMILES: Nc1nc(N)c2nc(-c3ccccc3)c(N)nc2n1 [triamterene]
natriuretic effect [1]: agument the natriuretic effect | oral dose required to block the kaliuretic effect of furosemide [2]: 50 mg and 100 mg | triamterene molecules required to solubilize furosemide and furosemide in controlled release form (molar basis): 298 molecules and 320 molecules and 324 molecules | Solute permeability K (Cl) ([7]; compartment A): 170,3 ± 10,0 mol·s^-1·N^-1 | Solute permeability Na (Cl) ([7]; compartment A): 111,2 ± 12,0 mol·s^-1·N^-1 | Solute permeability K (Cl) ([7]; compartment B): 90,5 ± 5,0 mol·s^-1·N^-1 | Solute permeability Na (Cl) ([7]; compartment B): 207,4 ± 8,0 mol·s^-1·N^-1 | half life time t1/2 [8]: 3.0 h

SMILES: CCCCNc1cc(C(=O)O)cc(S(N)(=O)=O)c1Oc1ccccc1 [bumetanide]
half life time t1/2 [8]: about 1 h

SMILES: NS(=O)(=O)c1cc(C(=O)O)cc(N2CCCC2)c1Oc1ccccc1 [peritanide]
half life time t1/2 [8]: about 1 h

SMILES: Nc1nc(N)c2nc(-c3ccc(OS(=O)(=O)O)cc3)c(N)nc2n1 [hydroxy-triamterene-sulfuric acid ester]
plasma concentration relative to triamterene ([9]; intravenous, simultaneous with furosemide): about ten | potassium loss caused by furosemide ([9]; simultaneous intravenous administration with furosemide): can be impeded

contact angle [5]: 59 deg. | contact angle ([5]; complexing to stearate, phthalate, etc.): 108 deg | critical micelle concentration (CMC) [6]: 83 µM
SMILES: NS(=O)(=O)c1cc(C(=O)O)c(NCc2ccco2)cc1Cl [furosemide]
